≈ marks a conversion by molar mass, not a printed value. Read-outs that look alike come from different tables or passages of the source.
What was measured:
S. aureus = experiment: MIC against S. aureus strains; format: cell-based; conditions: Staphylococcus aureus, S. aureus VRS1; read-out: MIC
[1] = tested on: Bifidobacterium longum HM-846; conditions: cited from earlier work
[2] = tested on: Fusobacterium nucleatum HM-992; conditions: cited from earlier work
K. pneumoniae ATCC700603 = experiment: MIC against K. pneumoniae; format: cell-based; conditions: Klebsiella pneumoniae; K. pneumoniae ATCC700603; read-out: MIC
C. difficile strains = conditions: cited from earlier work
Veillonella sp. HM-49 = conditions: cited from earlier work
[3] = tested on: S. haemolyticus ATCC 29970; experiment: MIC against S. haemolyticus; format: cell-based; conditions: Staphylococcus haemolyticus, ATCC29970; S. haemolyticus ATCC 29970; read-out: MIC
Gram-negative bacteria = format: cell-based
C. difficile ATCC 43255 [4] = experiment: Minimal-bactericidal concentration (MBC); format: cell-based, Clostridioides difficile; conditions: MBC/MIC≤4 indicates bactericidal
Eubacterium sp. HM-178 = conditions: cited from earlier work
[5] = tested on: Bacteroides fragilis HM-709; conditions: cited from earlier work
C. difficile ATCC 43255 [6] = conditions: cited from earlier work
[7] = tested on: Corynebacterium spp. HM-784; conditions: cited from earlier work
[8] = tested on: Lactobacillus gasseri HM-644; conditions: cited from earlier work
[9] = C. difficile strains of Table 4

## CCc1c(Cl)c(O)c(Cl)c(O)c1C(=O)O[C@H]1[C@H](O)[C@H](OC)[C@H](OC/C2=C\C=C\C[C@H](O)/C(C)=C/[C@H](CC)[C@@H](O[C@@H]3OC(C)(C)[C@@H](OC(=O)C(C)C)[C@H](O)[C@@H]3O)/C(C)=C/C(C)=C/C[C@@H]([C@@H](C)O)OC2=O)O[C@@H]1C [FDX, fidaxomicin]
S. aureus
  MIC: 64 µg/mL (≈ 60.5 µM)
[1]
  MIC: <0.01 µg/mL
[2]
  MIC: <0.06 µg/mL
K. pneumoniae ATCC700603
  MIC: > 128 µg/mL
C. difficile strains; 101 C. difficile strains
  IMIC50 (101 strains): 0.06 µg/mL
  MIC90 (101 strains): 0.25 µg/mL (≈ 0.236 µM)
C. difficile strains; C. difficile 23828, resistant to FDX
  MIC: >8 µg/mL
C. difficile strains; C. difficile 24531, resistant to VAN
  MIC: 0.01 µg/mL (≈ 0.00945 µM)
C. difficile strains; C. difficile 26675, resistant to MTZ
  MIC: 4 µg/mL (≈ 3.78 µM)
C. difficile strains; C. difficile BAA-1803
  MIC: 1 µg/mL (≈ 0.945 µM)
C. difficile strains; C. difficile BAA-1870
  MIC: 0.25 µg/mL (≈ 0.236 µM)
C. difficile strains; C. difficile NR49292
  MIC: 0.5 µg/mL (≈ 0.473 µM)
C. difficile strains; C. difficile NR49294
  MIC: 0.01 µg/mL (≈ 0.00945 µM)
C. difficile strains; C. difficile NR49302
  MIC: 0.03 µg/mL (≈ 0.0284 µM)
C. difficile strains; C. difficile NR49305
  MIC: 0.01 µg/mL (≈ 0.00945 µM)
C. difficile strains; C. difficile NR49310
  MIC: ≤0.01 µg/mL
C. difficile strains; C. difficile NR49318
  MIC: 0.125 µg/mL (≈ 0.118 µM)
C. difficile strains; [9]
  MIC50: 0.06 µg/mL (≈ 0.0567 µM)
  MIC90: 0.25 µg/mL (≈ 0.236 µM)
C. difficile strains; strain ATCC43598
  MIC: 0.01 µg/mL (≈ 0.00945 µM)
C. difficile strains; strain BAA-1801
  MIC: 0.125 µg/mL (≈ 0.118 µM)
C. difficile strains; strain BAA-1803
  MIC: 1 µg/mL (≈ 0.945 µM)
C. difficile strains; strain BAA-1804
  MIC: 0.125 µg/mL (≈ 0.118 µM)
C. difficile strains; strain BAA-1812
  MIC: 0.015 µg/mL (≈ 0.0142 µM)
C. difficile strains; strain BAA-1814
  MIC: 0.03 µg/mL (≈ 0.0284 µM)
C. difficile strains; strain BAA-1870
  MIC: 0.25 µg/mL (≈ 0.236 µM)
C. difficile strains; strain HM-88
  MIC: 0.03 µg/mL (≈ 0.0284 µM)
C. difficile strains; strain HM-89
  MIC: 0.03 µg/mL (≈ 0.0284 µM)
C. difficile strains; strain HM-745
  MIC: 0.125 µg/mL (≈ 0.118 µM)
C. difficile strains; strain HM-746
  MIC: ≤0.03 µg/mL
C. difficile strains; strain HM-747
  MIC: 0.06 µg/mL (≈ 0.0567 µM)
C. difficile strains; strain NR49292
  MIC: 0.5 µg/mL (≈ 0.473 µM)
C. difficile strains; strain NR49294
  MIC: 0.01 µg/mL (≈ 0.00945 µM)
C. difficile strains; strain NR49302
  MIC: 0.03 µg/mL (≈ 0.0284 µM)
C. difficile strains; strain NR49305
  MIC: 0.01 µg/mL (≈ 0.00945 µM)
C. difficile strains; strain NR49310
  MIC: ≤0.01 µg/mL
C. difficile strains; strain NR49318
  MIC: 0.125 µg/mL (≈ 0.118 µM)
C. difficile strains; strain NR-13427
  MIC: 0.03 µg/mL (≈ 0.0284 µM)
C. difficile strains; strain NR-13428
  MIC: ≤0.03 µg/mL
C. difficile strains; strain NR-13429
  MIC: 0.25 µg/mL (≈ 0.236 µM)
C. difficile strains; strain NR-13430
  MIC: ≤0.03 µg/mL
C. difficile strains; strain NR-13431
  MIC: 0.125 µg/mL (≈ 0.118 µM)
C. difficile strains; strain NR-13433
  MIC: 0.125 µg/mL (≈ 0.118 µM)
C. difficile strains; strain NR-13434
  MIC: 0.06 µg/mL (≈ 0.0567 µM)
C. difficile strains; strain NR-13435
  MIC: ≤0.03 µg/mL
C. difficile strains; strain NR-13436
  MIC: 0.125 µg/mL (≈ 0.118 µM)
C. difficile strains; strain NR-13437
  MIC: 0.25 µg/mL (≈ 0.236 µM)
C. difficile strains; strain NR-13438
  MIC: 0.06 µg/mL (≈ 0.0567 µM)
C. difficile strains; strain NR-13553
  MIC: ≤0.03 µg/mL
C. difficile strains; strain NR-32882
  MIC: 0.06 µg/mL (≈ 0.0567 µM)
C. difficile strains; strain NR-32883
  MIC: 0.125 µg/mL (≈ 0.118 µM)
C. difficile strains; strain NR-32884
  MIC: 0.03 µg/mL (≈ 0.0284 µM)
C. difficile strains; strain NR-32885
  MIC: 0.25 µg/mL (≈ 0.236 µM)
C. difficile strains; strain NR-32886
  MIC: 0.03 µg/mL (≈ 0.0284 µM)
C. difficile strains; strain NR-32887
  MIC: 0.125 µg/mL (≈ 0.118 µM)
C. difficile strains; strain NR-32888
  MIC: 0.03 µg/mL (≈ 0.0284 µM)
C. difficile strains; strain NR-32889
  MIC: 0.25 µg/mL (≈ 0.236 µM)
C. difficile strains; strain NR-32890
  MIC: 0.06 µg/mL (≈ 0.0567 µM)
C. difficile strains; strain NR-32891
  MIC: 0.03 µg/mL (≈ 0.0284 µM)
C. difficile strains; strain NR-32892
  MIC: 0.03 µg/mL (≈ 0.0284 µM)
C. difficile strains; strain NR-32895
  MIC: 0.03 µg/mL (≈ 0.0284 µM)
C. difficile strains; strain NR-32896
  MIC: 0.03 µg/mL (≈ 0.0284 µM)
C. difficile strains; strain NR-32897
  MIC: 0.03 µg/mL (≈ 0.0284 µM)
C. difficile strains; strain NR-32900
  MIC: 0.03 µg/mL (≈ 0.0284 µM)
C. difficile strains; strain NR-32903
  MIC: 0.03 µg/mL (≈ 0.0284 µM)
C. difficile strains; strain NR-32904
  MIC: 0.03 µg/mL (≈ 0.0284 µM)
C. difficile strains; strain NR-49277
  MIC: 0.06 µg/mL (≈ 0.0567 µM)
C. difficile strains; strain NR-49278
  MIC: 0.25 µg/mL (≈ 0.236 µM)
C. difficile strains; strain NR-49279
  MIC: 0.25 µg/mL (≈ 0.236 µM)
C. difficile strains; strain NR-49280
  MIC: 0.125 µg/mL (≈ 0.118 µM)
C. difficile strains; strain NR-49281
  MIC: 0.25 µg/mL (≈ 0.236 µM)
C. difficile strains; strain NR-49282
  MIC: 0.06 µg/mL (≈ 0.0567 µM)
C. difficile strains; strain NR-49283
  MIC: 0.03 µg/mL (≈ 0.0284 µM)
C. difficile strains; strain NR-49284
  MIC: 0.06 µg/mL (≈ 0.0567 µM)
C. difficile strains; strain NR-49285
  MIC: 0.06 µg/mL (≈ 0.0567 µM)
C. difficile strains; strain NR-49286
  MIC: 0.25 µg/mL (≈ 0.236 µM)
C. difficile strains; strain NR-49287
  MIC: 0.25 µg/mL (≈ 0.236 µM)
C. difficile strains; strain NR-49288
  MIC: 0.25 µg/mL (≈ 0.236 µM)
C. difficile strains; strain NR-49289
  MIC: 0.03 µg/mL (≈ 0.0284 µM)
C. difficile strains; strain NR-49290
  MIC: 0.06 µg/mL (≈ 0.0567 µM)
C. difficile strains; strain NR-49291
  MIC: 0.25 µg/mL (≈ 0.236 µM)
C. difficile strains; strain NR-49293
  MIC: ≤0.03 µg/mL
C. difficile strains; strain NR-49295
  MIC: ≤0.03 µg/mL
C. difficile strains; strain NR-49296
  MIC: ≤0.03 µg/mL
C. difficile strains; strain NR-49297
  MIC: 0.0125 µg/mL (≈ 0.0118 µM)
C. difficile strains; strain NR-49298
  MIC: 0.125 µg/mL (≈ 0.118 µM)
C. difficile strains; strain NR-49299
  MIC: 0.125 µg/mL (≈ 0.118 µM)
C. difficile strains; strain NR-49300
  MIC: 0.03 µg/mL (≈ 0.0284 µM)
C. difficile strains; strain NR-49301
  MIC: 0.03 µg/mL (≈ 0.0284 µM)
C. difficile strains; strain NR-49303
  MIC: 0.03 µg/mL (≈ 0.0284 µM)
C. difficile strains; strain NR-49304
  MIC: 0.06 µg/mL (≈ 0.0567 µM)
C. difficile strains; strain NR-49306
  MIC: 0.03 µg/mL (≈ 0.0284 µM)
C. difficile strains; strain NR-49307
  MIC: 0.03 µg/mL (≈ 0.0284 µM)
C. difficile strains; strain NR-49308
  MIC: 0.125 µg/mL (≈ 0.118 µM)
C. difficile strains; strain NR-49309
  MIC: 0.03 µg/mL (≈ 0.0284 µM)
C. difficile strains; strain NR-49311
  MIC: 0.03 µg/mL (≈ 0.0284 µM)
C. difficile strains; strain NR-49312
  MIC: 0.125 µg/mL (≈ 0.118 µM)
C. difficile strains; strain NR-49313
  MIC: 0.03 µg/mL (≈ 0.0284 µM)
C. difficile strains; strain NR-49314
  MIC: 0.25 µg/mL (≈ 0.236 µM)
C. difficile strains; strain NR-49315
  MIC: 0.06 µg/mL (≈ 0.0567 µM)
C. difficile strains; strain NR-49316
  MIC: 0.125 µg/mL (≈ 0.118 µM)
C. difficile strains; strain NR-49317
  MIC: 0.06 µg/mL (≈ 0.0567 µM)
C. difficile strains; strain NR-49319
  MIC: 0.125 µg/mL (≈ 0.118 µM)
C. difficile strains; strain NR-49320
  MIC: 0.125 µg/mL (≈ 0.118 µM)
C. difficile strains; strain NR-49321
  MIC: 0.125 µg/mL (≈ 0.118 µM)
C. difficile strains; strain NR-49323
  MIC: ≤0.03 µg/mL
C. difficile strains; strain NR-49324
  MIC: 0.06 µg/mL (≈ 0.0567 µM)
C. difficile strains; strain NR-49325
  MIC: 0.03 µg/mL (≈ 0.0284 µM)
C. difficile strains; strain NR-49326
  MIC: 0.03 µg/mL (≈ 0.0284 µM)
C. difficile strains; strain NR-49327
  MIC: 0.03 µg/mL (≈ 0.0284 µM)
C. difficile strains; strain NR-49328
  MIC: 0.03 µg/mL (≈ 0.0284 µM)
C. difficile strains; strain NR-49329
  MIC: 0.03 µg/mL (≈ 0.0284 µM)
C. difficile strains; strain RMA23691
  MIC: 4 µg/mL (≈ 3.78 µM)
C. difficile strains; strain RMA23828
  MIC: >8 µg/mL
C. difficile strains; strain RMA24531
  MIC: 0.01 µg/mL (≈ 0.00945 µM)
C. difficile strains; strain RMA24923
  MIC: 0.06 µg/mL (≈ 0.0567 µM)
C. difficile strains; strain RMA26675
  MIC: 4 µg/mL (≈ 3.78 µM)
C. difficile strains; strain RMA27081
  MIC: >8 µg/mL
C. difficile strains; strain RMA27173
  MIC: 0.01 µg/mL (≈ 0.00945 µM)
Veillonella sp. HM-49
  MIC: 8 µg/mL (≈ 7.56 µM)
[3]
  MIC: 16 µg/mL (≈ 15.1 µM)
Gram-negative bacteria
  activity against Gram-negative organisms: no activity
C. difficile ATCC 43255 [4]
  bactericidal or bacteriostatic: bactericidal
Eubacterium sp. HM-178
  MIC: 16 µg/mL (≈ 15.1 µM)
[5]
  MIC: >32 µg/mL
C. difficile ATCC 43255 [6]; C. difficile ATCC43255
  MIC: 0.06 µg/mL (≈ 0.0567 µM)
C. difficile ATCC 43255 [6]; strain ATCC43255
  MIC: 0.06 µg/mL (≈ 0.0567 µM)
[7]
  MIC: <0.06 µg/mL
[8]
  MIC: 2 µg/mL (≈ 1.89 µM)

From US20260125371A1, “METHOD FOR INHIBITING CLOSTRIDIOIDES DIFFICILE SPORE GERMINATION” (UNIVERSITY OF NOTRE DAME DU LAC, priority 2022, published 2026)
